Reference: publication PMC7037947, “Novel ACE Inhibitory Peptides Derived from Simulated Gastrointestinal Digestion in Vitro of Sesame (Sesamum indicum L.) Protein and Molecular Docking Study” (International Journal of Molecular Sciences, 2020)
Ends that are not written are not given here.

T1: Angiotensin Converting Enzyme (ACE) from rabbit lung (Oryctolagus cuniculus, UniProt P12822)
T1 construct: Angiotensin Converting Enzyme (ACE) from rabbit lung; purchased Sigma-Aldrich (St. Louis, MO, USA); host or cells: rabbit lung (tissue-derived)
T1 sequence (P12822 34-1310): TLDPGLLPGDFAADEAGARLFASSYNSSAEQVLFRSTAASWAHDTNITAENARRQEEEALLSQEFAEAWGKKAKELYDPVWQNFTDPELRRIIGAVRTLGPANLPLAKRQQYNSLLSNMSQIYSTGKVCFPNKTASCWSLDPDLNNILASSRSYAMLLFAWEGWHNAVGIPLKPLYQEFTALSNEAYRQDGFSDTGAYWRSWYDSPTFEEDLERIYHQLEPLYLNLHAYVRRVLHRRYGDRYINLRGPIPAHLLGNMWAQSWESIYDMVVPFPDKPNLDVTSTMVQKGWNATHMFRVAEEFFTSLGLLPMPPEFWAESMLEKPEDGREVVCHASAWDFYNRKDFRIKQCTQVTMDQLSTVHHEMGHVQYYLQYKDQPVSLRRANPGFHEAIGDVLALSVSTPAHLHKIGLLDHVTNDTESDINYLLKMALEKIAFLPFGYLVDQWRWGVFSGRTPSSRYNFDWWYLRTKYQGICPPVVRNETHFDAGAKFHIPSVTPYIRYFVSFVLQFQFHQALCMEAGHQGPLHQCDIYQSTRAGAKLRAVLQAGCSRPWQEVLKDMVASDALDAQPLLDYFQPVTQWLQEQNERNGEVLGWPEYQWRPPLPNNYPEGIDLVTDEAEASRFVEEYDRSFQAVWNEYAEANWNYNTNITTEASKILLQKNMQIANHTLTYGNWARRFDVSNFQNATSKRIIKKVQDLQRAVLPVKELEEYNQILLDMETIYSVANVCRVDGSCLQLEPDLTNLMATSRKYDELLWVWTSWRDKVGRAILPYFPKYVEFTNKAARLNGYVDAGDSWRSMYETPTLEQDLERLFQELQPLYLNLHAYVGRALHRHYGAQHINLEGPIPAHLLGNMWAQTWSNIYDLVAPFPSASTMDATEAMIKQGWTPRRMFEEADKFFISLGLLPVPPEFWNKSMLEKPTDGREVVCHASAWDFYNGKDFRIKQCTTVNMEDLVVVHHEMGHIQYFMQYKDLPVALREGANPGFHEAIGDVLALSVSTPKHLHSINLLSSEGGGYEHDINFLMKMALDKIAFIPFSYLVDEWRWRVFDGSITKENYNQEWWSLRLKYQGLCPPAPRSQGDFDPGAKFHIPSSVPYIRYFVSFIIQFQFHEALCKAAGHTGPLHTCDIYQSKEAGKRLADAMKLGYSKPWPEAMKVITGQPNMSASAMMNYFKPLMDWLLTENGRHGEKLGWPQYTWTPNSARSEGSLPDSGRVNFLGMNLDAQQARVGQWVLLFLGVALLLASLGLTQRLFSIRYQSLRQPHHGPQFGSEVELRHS

T2: Angiotensin Converting Enzyme (ACE) from rabbit lung (rabbit) (UniProt P12822)
T2 sequence: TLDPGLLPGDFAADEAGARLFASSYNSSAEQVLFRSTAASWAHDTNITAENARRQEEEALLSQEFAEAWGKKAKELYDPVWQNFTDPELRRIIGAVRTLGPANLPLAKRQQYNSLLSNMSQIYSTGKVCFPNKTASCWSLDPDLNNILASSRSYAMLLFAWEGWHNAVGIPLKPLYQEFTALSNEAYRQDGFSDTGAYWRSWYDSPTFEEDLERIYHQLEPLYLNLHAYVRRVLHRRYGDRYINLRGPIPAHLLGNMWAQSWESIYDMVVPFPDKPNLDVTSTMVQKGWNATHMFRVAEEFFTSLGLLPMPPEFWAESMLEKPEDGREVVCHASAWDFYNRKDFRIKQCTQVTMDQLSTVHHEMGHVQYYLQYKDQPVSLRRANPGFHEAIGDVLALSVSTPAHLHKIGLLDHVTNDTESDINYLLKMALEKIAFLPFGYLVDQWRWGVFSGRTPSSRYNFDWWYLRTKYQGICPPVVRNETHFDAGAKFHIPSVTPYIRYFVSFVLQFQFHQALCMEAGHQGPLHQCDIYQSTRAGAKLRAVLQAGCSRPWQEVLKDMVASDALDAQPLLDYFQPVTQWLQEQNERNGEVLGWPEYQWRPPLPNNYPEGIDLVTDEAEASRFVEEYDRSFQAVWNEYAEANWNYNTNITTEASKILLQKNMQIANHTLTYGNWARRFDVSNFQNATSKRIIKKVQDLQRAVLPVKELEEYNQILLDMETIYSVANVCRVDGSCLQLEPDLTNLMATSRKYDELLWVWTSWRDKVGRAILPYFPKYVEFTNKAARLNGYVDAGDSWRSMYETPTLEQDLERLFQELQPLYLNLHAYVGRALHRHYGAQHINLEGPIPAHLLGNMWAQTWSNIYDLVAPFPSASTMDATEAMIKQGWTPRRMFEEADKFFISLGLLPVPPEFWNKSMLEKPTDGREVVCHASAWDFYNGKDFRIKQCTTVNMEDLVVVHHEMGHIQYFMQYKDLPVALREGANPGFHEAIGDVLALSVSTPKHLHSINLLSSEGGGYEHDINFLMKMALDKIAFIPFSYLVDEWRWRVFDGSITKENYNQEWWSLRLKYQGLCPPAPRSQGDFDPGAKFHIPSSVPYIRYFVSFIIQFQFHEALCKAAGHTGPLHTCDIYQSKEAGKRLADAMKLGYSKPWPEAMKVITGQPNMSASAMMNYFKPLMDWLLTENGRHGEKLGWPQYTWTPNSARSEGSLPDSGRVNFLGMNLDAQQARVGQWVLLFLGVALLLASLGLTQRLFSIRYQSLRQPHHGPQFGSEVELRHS


Legend:
[1] = target: T1, Angiotensin Converting Enzyme (ACE) from rabbit lung; assay: ACE inhibitory activity assay (HHL substrate, OPA fluorescence); format: biochemical; details: chemically synthesized peptides identified from peak 4; mean ± SD, n = 3; read-out: IC50 Value inhibiting ACE activity
From the text: White sesame (Sesamum indicum L.) seeds were purchased from China Oil and Foodstuffs Corporation (Beijing, China). […] Pepsin (3000-3500 NFU/g), trypsin (250.N.F.U/mg), and α-chymotrypsin (1200 u/mg) were obtained from Solarbio Science and Technology Co., Ltd. (Beijing, China). Nanofiltration and ultrafiltration membranes were purchased from Rising Sun Membrane Technology Co., Ltd. (Beijing, China). All other reagents used in this study were of analytical grade. The ACE inhibitory activity was measured by using cary eclipse fluorescence spectrophotometer (Agilent Technologies Australia Pty Ltd., Mulgrave, Australia) according to a modified method of Li et al.. The sample was dissolved by distilled water to the appropriate concentration and the 96-well plate was used as the reaction vessel. Briefly, 30 μL of HHL substrate containing 0.3 mol/L NaCl in 50 mM borate buffer (pH 8.3) and 15 μL of samples were mixed. […] The reaction was stopped by using 125 μL of 1.2 mol/L NaOH. Finally, 30 μL of methanol solution containing 2% OPA was added, mixed evenly, and then stood at room temperature for 20 min. The derivative reaction was terminated by adding 40 μL of 6 mol/L HCl. The reaction solution was diluted 10 times and added into the fluorescence cell. The fluorescence absorption intensity was measured within 30–90 min. […] All assays were performed in triplicate. ACE inhibitory activity was calculated by using the following equation:ACE inhibitory activity (%) = [1 − (a−c)/(b−d)] × 100(2) where a is the fluorescence absorption intensity in the presence of both ACE and inhibitor, b is the fluorescence absorption intensity in the presence of ACE but not inhibitor, c is the fluorescence absorption intensity in the presence of inhibitor but not ACE, d is the fluorescence absorption intensity in the absence of both ACE and inhibitor.

ACE = test system: ACE; set-up: method as in doi:10.1007/s10989-015-9471-y; details: peptide from sesame protein hydrolyzed by alcalase, ref [20], cited from earlier work
[2] = target: T2, Angiotensin Converting Enzyme (ACE) from rabbit lung (rabbit)

IC50 [1] [µM] | IC50 of ACE inhibitory activity (enzyme activity on HHL substrate, OPA fluorescence, 37 °C, pH 8.3) [2] [μM] | Molecule | other results
19 ± 0.26 | – | PNYHPSPR | –
– | 11.1 | FMPGVPGPIQR | –
– | 68.5 | AGALGDSVTVTR | –
– | 19 | PNYHPSPR | –
– | 29 | AFPAGAAHW | –
– | 54.8 | MPGVPGPIQR | –

Second part, the molecule before the results:

Molecule | IC50 [1] [µM] | IC50 of ACE inhibitory activity (enzyme activity on HHL substrate, OPA fluorescence, 37 °C, pH 8.3) [2] [μM] | other results
AFPAGAAHW | 29 ± 0.2 | – | –
AGALGDSVTVTR | 68.49 ± 0.14 | – | –
FMPGVPGPIQR | 11.1 ± 0.15 | – | –
GHIITVAR | 3.6 ± 0.1 | – | –
HIGNILSL | 36.69 ± 0.33 | – | –
HIITLGR [HIITLGR] | 74.65 ± 0.13 | – | –
INTLSGR [INTLSGR] | 149.6 ± 0.33 | – | –
LAGNPAGR | 148.4 ± 0.35 | – | –
MPGVPGPIQR | 54.79 ± 0.37 | – | –
YAHYSYA | – | – | IC50 value, ACE inhibition (ACE): 600 µg/mL; IC50 (ACE; read-out: IC50 value, ACE inhibition): 687 µM
HIITLGR | – | 74.7 | –
GHIITVAR | – | 3.6 | –
INTLSGR | – | 150 | –
HIGNILSL | – | 36.7 | –
LAGNPAGR | – | 148 | –
